Assay results as given in ChEMBL document CHEMBL1857833, “Screening and optimization of specific chemical series against human African Trypanosomiasis (HAT)”.
In brackets after ≈: the same amount, converted by molar mass.

Assays:
Trypanosoma brucei = assay: DNDI: Inhibition of Human African Trypanosomiasis, SBRI 427, in vitro; type: functional, organism-based; settings: Trypanosoma brucei, SBRI 427; read-out: IC50
[1] = DNDI: Cytotoxicity against L929 mouse fibroblasts, 72 hour.; type: toxicity, cell-based; settings: mouse, L929 mouse fibroblasts

Row | SMILES | IC50 (Trypanosoma brucei) | IC50 at 72 h [1]
1 | O/N=C(\NC1CCCCC1)c1cccnc1Oc1cc(Cl)ccc1Cl | 0.57 µg/mL (≈ 1.5 µM) | > 10 µg/mL
2 | CCC(C)C(NCc1ccc(OC)c(OC)c1)c1nc(-c2ccccc2)c(N2CCCCC2)o1 (stereo not drawn) | > 5 µg/mL | > 10 µg/mL
3 | Cc1ccc(CNC(c2nc(Cc3ccccc3)c(N3CCOCC3)o2)c2ccccc2F)cc1 (stereo not drawn) | > 5 µg/mL | > 10 µg/mL
4 | O=C(OC1=CC(=O)N(C(=O)OCc2ccccc2)C1COCc1ccccc1)c1ccccc1 (stereo not drawn) | > 5 µg/mL | > 10 µg/mL
5 | CCCCc1ccc(-c2nc(Nc3cccnc3)co2)cc1 | > 5 µg/mL | 6.24 µg/mL (≈ 21.3 µM)
6 | CCCCc1ccc(-c2nc(CN3C(=O)c4ccccc4C3=O)co2)cc1 | > 5 µg/mL | > 10 µg/mL
7 | Cc1ccc(CNC(c2ccccc2)c2nc(-c3ccccc3)c(N3CCCCC3)o2)cc1 (stereo not drawn) | > 5 µg/mL | > 10 µg/mL
8 | CCc1cccc(N/C(=N\O)c2ccc(C)nc2Oc2cc(Cl)ccc2Cl)c1 | 3.96 µg/mL (≈ 9.51 µM) | 4.7 µg/mL (≈ 11.3 µM)
9 | CC(C)CC(NCc1ccc(Cl)c(Cl)c1)c1nc(-c2ccccc2)c(N2CCOCC2)o1 (stereo not drawn) | 4.46 µg/mL (≈ 9.4 µM) | > 10 µg/mL
10 | CCCCc1ccc(-c2nc(CNCc3ccncc3)co2)cc1 | > 5 µg/mL | > 10 µg/mL
11 | CCCCc1ccc(-c2nc(CNC3CCN(Cc4ccccc4)CC3)co2)cc1 | 0.16 µg/mL (≈ 0.396 µM) | 0.96 µg/mL (≈ 2.38 µM)
12 | Cc1ccc(CNC(c2cccc(Cl)c2)c2nc(Cc3ccccc3)c(N3CCOCC3)o2)cc1 (stereo not drawn) | > 5 µg/mL | > 10 µg/mL
13 | CCCCc1ccc(-c2nc(CNCc3ccccn3)co2)cc1 | > 5 µg/mL | 9.31 µg/mL (≈ 29 µM)
14 | CCCCCC(C)NCc1coc(-c2ccc(OCc3ccc(Cl)c(Cl)c3)cc2)n1 (stereo not drawn) | 0.41 µg/mL (≈ 0.916 µM) | 1.9 µg/mL (≈ 4.25 µM)
15 | CCOCCCNC(CC(C)C)c1nc(-c2ccccc2)c(N2CCOCC2)o1 (stereo not drawn) | > 5 µg/mL | > 10 µg/mL
16 | Nc1oc(-c2ccccc2)nc1C(=O)c1ccc(-c2ccccc2)cc1 | > 5 µg/mL | 5.23 µg/mL (≈ 15.4 µM)
17 | CCCCc1ccc(-c2nc(CNCCCNC(=O)OC(C)(C)C)co2)cc1 | 0.74 µg/mL (≈ 1.91 µM) | 1.47 µg/mL (≈ 3.79 µM)
18 | CCCCCC(C)NCc1coc(-c2ccc(OCCCC)c(C)c2)n1 (stereo not drawn) | 0.42 µg/mL (≈ 1.17 µM) | 1.37 µg/mL (≈ 3.82 µM)
19 | COc1ccc(-c2nc(CNCCCN(C)C)c(C)o2)cc1 | 3.13 µg/mL (≈ 10.3 µM) | > 10 µg/mL
20 | CCCCc1ccc(-c2nc(CNCCc3ccccc3)co2)cc1 | 0.69 µg/mL (≈ 2.06 µM) | 2.3 µg/mL (≈ 6.88 µM)
21 | CCCCCC(C)NCc1coc(-c2ccc(Cl)cc2Cl)n1 (stereo not drawn) | 0.9 µg/mL (≈ 2.64 µM) | 3.47 µg/mL (≈ 10.2 µM)
22 | CC(C)CC(NCc1ccc(C(F)(F)F)cc1)c1nc(-c2ccccc2)c(N2CCOCC2)o1 (stereo not drawn) | 2.58 µg/mL (≈ 5.45 µM) | > 10 µg/mL

Row | SMILES | IC50 (Trypanosoma brucei) | IC50 at 72 h [1]
23 | CCC(C)C(NCc1ccc(C)cc1)c1nc(-c2ccccc2)c(N2CCCCC2)o1 (stereo not drawn) | > 5 µg/mL | > 10 µg/mL
24 | CCCCc1ccc(-c2nc(CNCCCn3ccnc3)co2)cc1 | 0.3 µg/mL (≈ 0.886 µM) | 0.66 µg/mL (≈ 1.95 µM)
25 | CC(C)CC(NCCc1ccc(S(N)(=O)=O)cc1)c1nc(C(C)C)c(N2CCOCC2)o1 (stereo not drawn) | > 5 µg/mL | > 10 µg/mL
26 | COc1ccccc1C(=O)c1nc(-c2ccccc2)oc1N | > 5 µg/mL | > 10 µg/mL
27 | Cc1ccc(CNC(CC(C)C)c2nc(C(C)C)c(N3CCOCC3)o2)cc1 (stereo not drawn) | > 5 µg/mL | > 10 µg/mL
28 | CCCCOc1ccc(-c2nc(CNCC(C)(C)C)co2)cc1 | 0.9 µg/mL (≈ 2.84 µM) | 1.8 µg/mL (≈ 5.69 µM)
29 | CCCCc1ccc(-c2nc(CN)co2)cc1 | > 5 µg/mL | > 10 µg/mL
30 | Cc1ccc(CNC(c2cccc(C#N)c2)c2nc(Cc3ccccc3)c(N3CCOCC3)o2)cc1 (stereo not drawn) | > 5 µg/mL | > 10 µg/mL
31 | COc1ccccc1Oc1ncccc1/C(N)=N\O | > 5 µg/mL | > 10 µg/mL
32 | O/N=C(\Nc1cccc(F)c1)c1cccnc1Oc1cc(Cl)ccc1Cl | > 5 µg/mL | 7.69 µg/mL (≈ 19.6 µM)
33 | CN(C)CCCNCc1coc(-c2ccc(OCCc3ccccc3)cc2)n1 | > 5 µg/mL | > 10 µg/mL
34 | CC(C)c1ccc(-c2nc(CNCCCN(C)C)co2)cc1 | > 5 µg/mL | > 10 µg/mL
35 | CCCCc1ccc(-c2nc(CNCCc3cnc[nH]3)co2)cc1 | 0.37 µg/mL (≈ 1.14 µM) | 2.43 µg/mL (≈ 7.49 µM)
36 | CCCCCc1ccc(-c2nc(CNC(C)CCCCC)co2)cc1 (stereo not drawn) | 1.09 µg/mL (≈ 3.18 µM) | 1.01 µg/mL (≈ 2.95 µM)
37 | CCCCCC(C)NCc1coc(-c2ccc([N+](=O)[O-])cc2)n1 (stereo not drawn) | 4.99 µg/mL (≈ 15.7 µM) | 7.08 µg/mL (≈ 22.3 µM)
38 | CCCCCC(C)NCc1coc(C2CCCCC2)n1 (stereo not drawn) | 2.54 µg/mL (≈ 9.12 µM) | 10 µg/mL (≈ 35.9 µM)
39 | CCCCCC(C)NCc1coc(-c2c(Cl)cccc2Cl)n1 (stereo not drawn) | 2.04 µg/mL (≈ 5.98 µM) | 5.76 µg/mL (≈ 16.9 µM)
40 | C/C(O)=C1\C(=O)NC(CC(C)C)C1=O (stereo not drawn) | > 5 µg/mL | > 10 µg/mL
41 | CCOCCCNC(c1nc(Cc2ccccc2)c(N2CCOCC2)o1)C1CC1 (stereo not drawn) | > 5 µg/mL | > 10 µg/mL
42 | CCCCc1ccc(-c2nc(COCC)co2)cc1 | > 5 µg/mL | > 10 µg/mL
43 | C#[N+]C(C(=O)N1CCOCC1)c1ccccc1 (stereo not drawn) | > 5 µg/mL | > 10 µg/mL
44 | C#[N+]C(C(=O)N1CCOCC1)C(C)C (stereo not drawn) | > 5 µg/mL | > 10 µg/mL
